Laboratory results taken from article PMC12086609, “Characterization of the Structure and Function of the Photosynthetic RC–LH1 Core Supercomplex From Rhodospirillum rubrum” (Physiologia Plantarum, 2025).

Legend:
[1] = biological target: T1, Rsp. rubrum RC–LH1 supercomplex (RC–LH1 monomer) (Rhodospirillum rubrum, UniProt P02947+P10717+Q2RQ23+Q2RQ26); assay: cryo-EM structure, […] Å; type: binding; details: native carotenoid of LH1, one per alpha-beta heterodimer (16)
T1 construct: gene pufL; native purification from phototrophic cells (beta-DDM, sucrose gradient); closed ring of 16 alpha-beta pairs around RC L, M, H; modelled alpha 45 and beta 44 residues

[2] = biological target: T2, Rba. sphaeroides WT RC–LH1 monomer (Cereibacter sphaeroides, UniProt P0C0Y8+P0C0Y9); assay: cytochrome c2 oxidation at […] nm under […] nm light; type: biochemical; details: QB site of RC (L/M); 0-40 μM UQ2, 15 nM RC–LH1, 30 μM reduced horse-heart cytochrome c, HEPES pH 8.0, 0.01% β-DDM; apparent Km not determined
T2 construct: gene pufL; native RC–LH1 monomer with open LH1 ring (contains PufX); with Reaction center protein H chain; Light-harvesting protein B-875 alpha chain (LH1 alpha); Light-harvesting protein B-875 beta chain (LH1 beta); Intrinsic membrane protein PufX

[3] = biological target: T1, Rsp. rubrum RC–LH1 supercomplex (RC–LH1 monomer); assay: cytochrome c2 oxidation at […] nm under […] nm light; type: biochemical; details: QB site of RC (L/M); 0-40 μM UQ2, 15 nM RC–LH1, 30 μM reduced horse-heart cytochrome c, HEPES pH 8.0, 0.01% β-DDM; apparent Km not determined

T1 sequence (P10717 2-276): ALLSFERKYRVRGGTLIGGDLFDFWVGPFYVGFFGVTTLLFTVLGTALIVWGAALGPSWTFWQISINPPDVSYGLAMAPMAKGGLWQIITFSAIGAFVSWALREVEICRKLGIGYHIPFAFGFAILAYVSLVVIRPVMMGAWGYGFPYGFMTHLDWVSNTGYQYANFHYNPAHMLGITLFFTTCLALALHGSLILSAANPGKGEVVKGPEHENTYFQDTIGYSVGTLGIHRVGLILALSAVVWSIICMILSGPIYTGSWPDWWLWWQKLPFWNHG
T1 sequence (Q2RQ26 1-306): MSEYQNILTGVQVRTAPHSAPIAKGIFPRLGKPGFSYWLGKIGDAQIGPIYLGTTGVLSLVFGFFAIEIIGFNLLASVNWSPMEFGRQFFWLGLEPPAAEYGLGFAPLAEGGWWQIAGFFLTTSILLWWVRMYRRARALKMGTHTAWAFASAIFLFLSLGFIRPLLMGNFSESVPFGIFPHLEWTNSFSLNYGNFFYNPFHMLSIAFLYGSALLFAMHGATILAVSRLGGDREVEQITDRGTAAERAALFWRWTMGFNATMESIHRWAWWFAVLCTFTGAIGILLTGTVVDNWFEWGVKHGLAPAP
T1 sequence (Q2RWS4 1-257 partner): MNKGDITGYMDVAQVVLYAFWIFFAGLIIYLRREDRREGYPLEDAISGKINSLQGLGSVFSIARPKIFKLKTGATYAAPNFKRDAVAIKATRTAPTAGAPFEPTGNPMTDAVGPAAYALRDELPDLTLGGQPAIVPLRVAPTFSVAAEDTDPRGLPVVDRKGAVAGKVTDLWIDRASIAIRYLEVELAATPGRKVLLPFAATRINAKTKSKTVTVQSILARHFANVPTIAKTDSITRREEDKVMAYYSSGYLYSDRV
T1 sequence (P02947 1-52): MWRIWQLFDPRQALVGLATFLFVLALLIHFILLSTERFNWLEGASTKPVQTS
T1 sequence (Q2RQ23 3-56): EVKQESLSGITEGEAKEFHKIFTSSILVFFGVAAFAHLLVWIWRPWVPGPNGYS

SMILES | cryo-EM structure, 3.0 Å [1] | cytochrome c2 oxidation at 550 nm under 880 nm light [2] | cytochrome c oxidation at 550 nm under 880 nm light [3]
COC(C)(C)C/C=C/C(C)=C/C=C/C(C)=C/C=C/C(C)=C/C=C/C=C(C)/C=C/C=C(C)/C=C/C=C(C)/C=C/CC(C)(C)OC [spirilloxanthin] | The LH1 α‐polypeptide is light blue sky, the β‐polypeptide is pink, spirilloxanthin is green |  | 
COC1=C(OC)C(=O)C(C/C=C(\C)CCC=C(C)C)=C(C)C1=O [ubiquinone‐2] |  | open RC–LH1 monomer of Rba. sphaeroides WT | maximum quinone/quinol exchange rate for Rsp. rubrum RC–LH1 monomer
